From article PMC11784839, “Monoaminergic neurotransmitters are bimodal effectors of tau aggregation” (Science Advances, 2025)

Biological target: tau (Homo sapiens, UniProt P10636)
Assay: MCE Phenols Library screening, tau biosensor cell seeding assay (AvZ)
Type: cell-based
Details: for Z repl 1 / Z Repl 2: Z score; for Z repl 1 / raw data 1: replicate 1; for Z Repl 2 / raw data 2: replicate 2; for AvZ (average z score of seeding, SDs from the mean level of seeding): 10 μM phenol in cell cultures, AD brain homogenate preincubated 16 hours, two biological replicates, positive = catalyzes seeding, negative = inhibits
[1] = average Z score of the two replicates, MCE Phenols Library screen
[2] = average Z score of two replicates, Phenols Library screen
[3] = average puncta of the two replicates
[4] = average Z score of the two replicates, tau seeding

tau, sequence (P10636 623-695 limits assumed): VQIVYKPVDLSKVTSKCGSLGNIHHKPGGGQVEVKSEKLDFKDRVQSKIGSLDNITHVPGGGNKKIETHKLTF

Row | SMILES | Z repl 1 | Z Repl 2 | av Z [1] | av puncta (average of raw data 1 and 2) | raw data 1 (puncta) | raw data 2 (puncta) | av Z [2] | av puncta [3] | raw data 1 (raw puncta) | raw data 2 (raw puncta) | AvZ (average z score of seeding, SDs from the mean level of seeding) | av Z [4]
1 | COc1c(O)cc2oc(-c3ccc(O)c(O)c3)cc(=O)c2c1O [Nepetin] | -0.728 | -0.807 | -0.768 | 10877.8 | 17608.6 | 4146.93 | – | – | – | – | – | –
2 | CC(=O)c1c(C)cc2cccc(O)c2c1O [Nepodin] | -0.364 | 0.129 | – | 18059 | 21978.8 | 14139.2 | -0.118 | – | – | – | – | –
3 | COc1ccc(-c2cc(=O)c3c(O)c(OC)c(O)c(OC)c3o2)cc1 [Nevadensin] | -0.55 | -0.108 | -0.329 | – | – | – | – | 15677.7 | 19746.6 | 11608.9 | – | –
4 | O=C1O[C@@H]2[C@@H](O)[C@H](O)[C@@H](CO)O[C@H]2c2c1cc(O)c(O)c2O [Norbergenin] | -0.528 | 0.442 | – | 18743.5 | 20005.8 | 17481.2 | -0.043 | – | – | – | – | –
5 | COc1cc(CNC(=O)CCCCCC(C)C)ccc1O [Nordihydrocapsaicin] | -0.001 | -0.682 | – | – | – | – | – | 15905.5 | 26333.1 | 5477.91 | -0.342 | –
6 | CC(Cc1ccc(O)c(O)c1)C(C)Cc1ccc(O)c(O)c1 (stereo not drawn) [Nordihydroguaiaretic acid] | -0.326 | 0.012 | – | 17666.9 | 22434.9 | 12898.9 | -0.157 | – | – | – | – | –
7 | Cc1cc(=O)c2c(O)cc(O)cc2o1 [Noreugenin] | -0.363 | -0.457 | -0.41 | – | – | – | – | 14938 | 21994.8 | 7881.17 | – | –
8 | CC(C)(O)CCc1c(O)cc(O)c2c(=O)c(O)c(-c3ccc(O)cc3)oc12 [Noricaritin] | 0.56 | 0.239 | – | 24195.2 | 33071.8 | 15318.5 | – | – | – | – | 0.399 | –
9 | O=c1c2c(O)cc(O)cc2oc2c(O)ccc(O[C@@H]3O[C@H](CO)[C@@H](O)[C@H](O)[C@H]3O)c12 [Norswertianolin] | -0.236 | -0.647 | -0.441 | – | – | – | – | 14688.3 | 23518.4 | 5858.11 | – | –
10 | O=c1cc(-c2ccccc2)oc2c(O)c(O)cc(O)c12 [Norwogonin] | -0.966 | -0.652 | -0.809 | 10276.7 | 14754.3 | 5799.06 | – | – | – | – | – | –
11 | CC(C(=O)c1ccc(O)cc1O)c1ccc(O)cc1 (stereo not drawn) [O-Desmethylangolensin] | 0.135 | -0.221 | – | 19189.1 | 27969 | 10409.2 | -0.043 | – | – | – | – | –
12 | COc1c(O)c(C)cc2c1C(=O)c1c(O)cccc1C2=O [Obtusifolin] | -0.23 | 0.069 | – | 18542 | 23582.4 | 13501.7 | -0.081 | – | – | – | – | –
13 | C[C@@H]1CC(=O)c2c(ccc3c2C(=O)c2cccc(O)c2C3=O)C1 [Ochromycinone] | -0.991 | -0.213 | -0.602 | – | 14447.4 | 10495.4 | – | 12471.4 | – | – | – | –
14 | COc1cc(CCC(O)CC(O)CCc2ccc(O)c(OC)c2)ccc1O (stereo not drawn) [Octahydrocurcumin] | -0.643 | 0.033 | -0.305 | – | – | – | – | 15871.9 | 18628.3 | 13115.6 | – | –
15 | Cl.NCC(O)c1ccc(O)cc1 (stereo not drawn) [Octopamine (hydrochloride)] | -0.187 | 0.177 | – | 19376.3 | 24099.8 | 14652.9 | – | – | – | – | -0.005 | –
16 | O=c1cc(-c2ccc(O)c(O)c2)oc2c([C@@H]3O[C@H](CO)[C@@H](O)[C@H](O)[C@H]3O)c(O)cc(O)c12 [Orientin] | 0.558 | -0.368 | – | 20945 | 33050.1 | 8839.87 | 0.095 | – | – | – | – | –
17 | Oc1cc(O)cc(/C=C/c2ccc(O)cc2O)c1 [Oxyresveratrol] | 0.048 | -0.792 | -0.372 | – | – | – | – | 15614.1 | 26923.9 | 4304.18 | – | –
18 | COc1cc2c(cc1O)C[C@H]1c3cc(O)c(OC)cc3CC[N@@+]1(C)C2.[Cl-] [Phellodendrine (chloride)] | 0.263 | -0.68 | -0.208 | – | – | – | – | 17505.3 | 29504.3 | 5506.25 | – | –
19 | O=C(CCc1ccc(O)cc1)c1c(O)cc(O)cc1O [Phloretin] | -0.858 | -0.477 | -0.667 | – | 16053.8 | 7668.02 | – | 11860.9 | – | – | – | –

Continued, values first:

Row | Z repl 1 | Z Repl 2 | av Z [1] | av puncta (average of raw data 1 and 2) | raw data 1 (puncta) | raw data 2 (puncta) | av Z [2] | av puncta [3] | raw data 1 (raw puncta) | raw data 2 (raw puncta) | AvZ (average z score of seeding, SDs from the mean level of seeding) | av Z [4] | SMILES
20 | -1.882 | -1.187 | -1.534 | 1923.27 | 3755.83 | 90.703 | – | – | – | – | – | – | O=C(/C=C/c1ccc(O)c(O)c1)c1ccc(O)c(O)c1O [Okanin]
21 | -0.169 | 0.358 | – | 20456.3 | 24324.1 | 16588.6 | 0.095 | – | – | – | – | – | COc1ccc(CC(=O)c2ccc(O)cc2O)cc1 [Ononetin]
22 | -1.362 | -0.316 | – | 9697.38 | 9999.31 | 9395.45 | – | – | – | – | -0.839 | – | Cc1cc(O)cc(O)c1 [Orcinol]
23 | -0.164 | -0.982 | -0.573 | – | 24381.7 | 2282.35 | – | 13332 | – | – | – | – | O=c1cc(-c2ccccc2)oc2cc(O[C@@H]3O[C@H](CO[C@@H]4O[C@H](CO)[C@@H](O)[C@H](O)[C@H]4O)[C@@H](O)[C@H](O)[C@H]3O)c(O)c(O)c12 [Oroxin B]
24 | -0.296 | 0.55 | – | 20714.9 | 22792.7 | 18637 | – | – | – | – | – | 0.127 | COc1c(O[C@@H]2O[C@H](C(=O)O)[C@@H](O)[C@H](O)[C@H]2O)cc2oc(-c3ccccc3)cc(=O)c2c1O [Oroxylin A-7-O-glucuronide]
25 | -0.11 | -0.323 | -0.217 | – | – | – | – | 17171.6 | 25029.5 | 9313.67 | – | – | COc1c(O)cc2oc(-c3ccccc3)cc(=O)c2c1O [Oroxylin A]
26 | -0.859 | 0.047 | -0.406 | – | – | – | – | 14655.6 | 16039.6 | 13271.6 | – | – | OC[C@H]1O[C@@H](Oc2cc(O)ccc2/C=C/c2cc(O)cc(O)c2)[C@H](O)[C@@H](O)[C@@H]1O [Oxyresveratrol 2-O-?-D-glucopyranoside]
27 | 0.101 | 0.444 | – | 22534.1 | 27565 | 17503.1 | – | – | – | – | 0.272 | – | COc1ccc(C(C)=O)c(O)c1 [Paeonol]
28 | 0.462 | 0.318 | – | 24029.7 | 31895.3 | 16164 | – | – | – | – | – | 0.39 | O=C(O)CC(O)(CC(=O)OCc1ccc(O[C@@H]2O[C@H](CO)[C@@H](O)[C@H](O)[C@H]2O)cc1)C(=O)OCc1ccc(O[C@@H]2O[C@H](CO)[C@@H](O)[C@H](O)[C@H]2O)cc1 (stereo partly drawn) [Parishin B]
29 | -1.04 | -0.216 | -0.628 | – | 13862 | 10454.8 | – | 12158.4 | – | – | – | – | O=C(O)CC(O)(CC(=O)OCc1ccc(O[C@@H]2O[C@H](CO)[C@@H](O)[C@H](O)[C@H]2O)cc1)C(=O)O (stereo partly drawn) [Parishin E]
30 | -0.106 | 0.876 | – | 23601.4 | 25077.3 | 22125.4 | – | – | – | – | – | 0.385 | COc1ccc(-c2cc(=O)c3c(O)c(OC)c(O)cc3o2)cc1 [Pectolinarigenin]
31 | 0.677 | -0.144 | – | 22850.6 | 34472.8 | 11228.4 | – | – | – | – | – | 0.266 | COc1ccc(-c2cc(=O)c3c(O)c(OC)c(O[C@@H]4O[C@H](CO[C@@H]5O[C@@H](C)[C@H](O)[C@@H](O)[C@H]5O)[C@@H](O)[C@H](O)[C@H]4O)cc3o2)cc1 [Pectolinarin]
32 | -0.056 | -0.658 | -0.357 | – | – | – | – | 15704.2 | 25674.3 | 5734.06 | – | – | O=C(O)Cc1cc(O)ccc1O[C@@H]1O[C@H](CO)[C@@H](O)[C@H](O)[C@H]1O [Phaseoloidin]
33 | -0.297 | -0.278 | -0.288 | – | – | – | – | 16285.7 | 22779.3 | 9792.07 | – | – | O=C(CCc1ccc(O)cc1)c1c(O)cc(O)cc1O[C@@H]1O[C@H](CO)[C@@H](O)[C@H](O)[C@H]1O [Phlorizin]
